Reference: ChEMBL document CHEMBL3044761, “Lethal Activity of a Trehalase Inhibitor, Validoxylamine A, against Mamestra brassicae and Spodoptera litura” (J Pestic Sci, 1994)

How the values were obtained:
Spodoptera litura = experiment: Insecticidal activity against last-instar Spodoptera litura larvae assessed as mortality; assay type: functional
Mamestra brassicae = experiment: Insecticidal activity against last-instar Mamestra brassicae larvae assessed as larval-pupal intermediate injected at 50 ug/larvae (reference value: 0%); assay type: functional
Vacuolar acid trehalase = target: T1, Vacuolar acid trehalase (Saccharomyces cerevisiae (strain ATCC 204508 / S288c) (Baker's yeast), UniProt P48016); experiment: Inhibition of Saccharomyces cerevisiae trehalase; settings: read-out: I50
T1 sequence (P48016 whole entry): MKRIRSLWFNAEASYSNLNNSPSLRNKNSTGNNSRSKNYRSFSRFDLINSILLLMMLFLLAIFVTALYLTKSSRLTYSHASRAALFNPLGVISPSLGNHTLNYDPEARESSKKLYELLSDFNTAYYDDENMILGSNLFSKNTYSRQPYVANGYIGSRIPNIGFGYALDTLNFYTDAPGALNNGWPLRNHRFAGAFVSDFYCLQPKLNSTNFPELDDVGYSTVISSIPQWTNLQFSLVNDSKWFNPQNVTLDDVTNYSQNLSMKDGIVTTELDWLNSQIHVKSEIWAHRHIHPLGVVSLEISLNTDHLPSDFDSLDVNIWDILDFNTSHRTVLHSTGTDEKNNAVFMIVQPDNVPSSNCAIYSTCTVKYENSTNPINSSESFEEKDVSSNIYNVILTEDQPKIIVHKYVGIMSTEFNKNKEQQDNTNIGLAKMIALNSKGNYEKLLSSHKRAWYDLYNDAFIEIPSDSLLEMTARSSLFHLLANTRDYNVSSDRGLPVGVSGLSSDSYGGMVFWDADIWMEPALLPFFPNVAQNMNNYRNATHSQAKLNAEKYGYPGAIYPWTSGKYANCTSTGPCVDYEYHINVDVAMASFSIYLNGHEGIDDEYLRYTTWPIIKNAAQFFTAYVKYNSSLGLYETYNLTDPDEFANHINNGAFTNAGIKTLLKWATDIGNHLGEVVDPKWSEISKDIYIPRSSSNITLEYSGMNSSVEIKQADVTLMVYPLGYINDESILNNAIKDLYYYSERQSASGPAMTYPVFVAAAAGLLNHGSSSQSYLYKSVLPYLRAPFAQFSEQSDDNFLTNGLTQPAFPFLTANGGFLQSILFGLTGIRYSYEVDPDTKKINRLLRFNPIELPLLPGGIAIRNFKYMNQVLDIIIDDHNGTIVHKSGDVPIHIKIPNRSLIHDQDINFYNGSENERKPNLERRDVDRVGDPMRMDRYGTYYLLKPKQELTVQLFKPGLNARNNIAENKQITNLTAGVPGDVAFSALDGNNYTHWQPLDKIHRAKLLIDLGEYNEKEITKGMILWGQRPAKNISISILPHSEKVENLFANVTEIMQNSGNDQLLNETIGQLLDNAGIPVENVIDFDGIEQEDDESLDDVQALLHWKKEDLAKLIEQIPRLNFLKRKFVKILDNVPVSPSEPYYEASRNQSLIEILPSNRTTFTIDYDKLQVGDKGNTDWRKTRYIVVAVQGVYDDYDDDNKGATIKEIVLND

OCC1=C[C@H](N[C@H]2C[C@H](CO)[C@@H](O)[C@H](O)[C@H]2O)[C@H](O)[C@@H](O)[C@@H]1O [VALIDOXYLAMINE A]
LD50 (Spodoptera litura): 2.42 µg | Activity (Mamestra brassicae): 100% | IC50 (Vacuolar acid trehalase): 3 nM
